{"source": "patent US9290737B2", "about": "“Method for enucleating nucleated erythrocyte, and enucleation inducer” (Kanazawa Medical University, priority 2009, dated 2016)", "format_in_all_cases": "cell-based", "key": {"[1]": {"system": "nucleated erythrocytes derived from human cord blood", "experiment": "Enucleation rate of nucleated erythrocytes derived from human cord blood CD34-positive cells (DAPI staining and flow cytometry)", "settings": "5.0 μM added on Day 4 in phase II, measured on Day 9; DAPI staining (FIG. 7) and flow cytometry (FIG. 8)", "protocol": "CD34-positive hematopoietic stem cells derived from a human (derived from the cord blood, 90% or more CD34-positive, product from Lonza:\nhttp://catalog.takara-bio.co.jp/product/basic_info.asp?unitid=U10 0004262) were cultured in HPGM medium. The cells at a density of 2×10^4 to 2×10^5 cells/ml were cultured with 25 ng/ml of SCF, 50 ng/ml of thrombopoietin, and 50 ng/ml of Flt-3 ligand for first 7 days, and this was used as a phase I.\nNext, the cells at a density of 2×10^5 cells/ml were cultured with 3 U/ml of EPO, 25 ng/ml of SCF, 10 ng/ml of IL-3, and 10 ng/ml of IL-6, and this was used as a phase II. The cells were cultured with the addition of ACTH1-24, ACTH1-39, CLIP, or α-MSH at a concentration of 5.0 μM, or ACTH1-24 at a concentration of 0.5 μM on Day 4 in the phase II.\nThe erythrocytes in the above-mentioned phase II cultured with ACTH1-24, ACTH1-39, CLIP, or α-MSH on Day 9 were fixed with 10% formalin, and stained with 4′,6-diamidino-2-phenylindole (DAPI). Ten photographs were randomly taken under a fluorescence microscope, and the numbers of nucleated and enucleated erythrocytes were visually counted. The measurement was carried out in the blinded manner. The enucleation rate was calculated in the same manner as in Example 1.\n(§1) Double staining for glycophorin A (Gly A) and the nucleus (propidium iodide, PI) was given to blood cells in the phase II cultured with ACTH1-24, CLIP, or α-MSH on Day 9 in the same manner as in the foregoing. The cells were analyzed using a flow cytometry (automatic cell analysis sorting apparatus, FACS Calibur/Becton Dickinson). Gly A-positive/PI-negative cells (corresponding to the left upper fraction of four dot plot fractions divided by data from flow cytometry in FIG. 9B) were determined as enucleated cells, and the enucleation rate of these enucleated cells relative to the total cells was calculated."}, "[2]": {"system": "nucleated erythrocytes derived from a fetal rat", "experiment": "Enucleation rate of nucleated erythrocytes derived from fetal rat (DAPI staining, fluorescence microscope count)", "settings": "vs control without peptide", "protocol": "Experimental rats were bred, and peripheral blood was collected from 12 fetuses aged 13 days post coitum.\nThe collected peripheral blood was centrifuged at 1,000×g for 5 minutes at room temperature (centrifuge: Hitachi/05PR-22). Then, serum was removed, and blood cells were suspended in 10 ml of culture medium (supplemented with 10% FBS (Sigma/CR1211)/RPMI-1640 Medium (c) (Sigma/R8578)/1% penicillin-streptomycin (Sigma/P4333)) in a clean bench. This suspension was centrifuged again, a supernatant was removed, and the cells were resuspended in the culture medium. This manipulation was repeated twice, and finally the cells were suspended in 10 ml of the culture medium to prepare a sample for culturing peripheral blood.\nA blood cell (cell) density was counted using about 10 μl of this sample and a hemocytometer (Burker-Turk Deep 1/10 mm/Erma Tokyo/7787), and the sample was diluted based on the counted value to adjust to 2×10^6 cells/ml.\nThis sample was diluted to a cell density of 1×10^6 cells/ml with the culture medium, to which ACTH1-24 (SEQ ID NO: 2, manufactured by Sigma) was added at a final concentration of 1 μM or 5 μM to use as a subject culture medium. The sample to which no ACTH1-24 was added was used as a control.\n1 ml each of the various subject culture media was dispensed into a 4-well chamber slide glass (Chamber Slide™ System/Lab Tek (registered trademark)/177380), and cultured for a predetermined period of time in an incubator (Sakura CO2 gas Incubator/Sakura/IC-160) under the condition at 37° C. at 5% CO2.\nAt 0, 3, and 6 hours of the culture, the cells in each subject culture medium were fixed with glutaraldehyde (25% glutaraldehyde solution/Wako Pure Chemical Industries Ltd./073-00536) at a final concentration of 2%. DAPI (1 mg/ml of DAPI solution/DOJINDO/340-07971) for staining nuclei was dripped to the culture medium at a final volume ratio of 1/20,000, which was then shaken for 5 minutes, subsequently excited by a UV source using a fluorescence microscope (OLYMPUS IX70), and 10 fixed points were photographed. Then, the number of cells in the photograph was counted.\nThe enucleation rate was calculated as follows. Enucleation rate (%)={Enucleated erythrocyte count/Total cell count (Nucleated cell (including nucleated erythrocytes and mesenchymal stem cells) count+Enucleated erythrocyte count)} […]\nThis sample was diluted to a cell density of 1×10^6 cells/ml with the culture medium, to which CLIP (SEQ ID NO: 11, manufactured by Sigma) or α-MSH (SEQ ID NO: 3, manufactured by Sigma) was added at a final concentration of 1 μM or 5 μM to use as a subject culture medium. The sample to which neither CLIP nor α-MSH was added was used as a control.\n250 μl each of the various subject culture media were dispensed in an 8-well chamber slide glass (Chamber Slide™ System/Lab TekR/177402), and cultured for a predetermined period of time in an incubator under the condition at 37° C. at 5% CO2. At 3, 6, and 9 (only for the 5-μM addition samples) hours of the culture, each subject culture medium was sampled, and the culture medium was fixed with glutaraldehyde at a final concentration of 2%. DAPI for staining nuclei was dripped to the culture medium, which was then shaken for 5 minutes, subsequently microscopically observed using a fluorescence microscope, and 10 field images were randomly determined and photographed. The number of cells in each of the photographs was counted, and the mean value thereof was calculated. The enucleation rate was calculated in the same way as in Example 1."}, "[3]": {"system": "cells differentiating into erythrocytes derived from human cord blood", "experiment": "Enucleation efficiency of cells derived from human cord blood (flow cytometry, Gly A/PI)", "settings": "0.5 μM, culture as in Example 4, flow cytometry (FIG. 9A)", "protocol": "as §1\nACTH1-24 at a concentration of 0.5 μM was added to the culture carried out in the same manner as in Example 4, and the enucleation rate was measured by flow cytometry.\nGly A is a surface marker of erythroblasts, reticulocytes, and mature erythrocytes. Thus, this method was cited as a method of measuring the percentage of “enucleated erythrocytes”/“cells differentiating into erythrocytes” in a population of blood cells including immature erythrocytes (see Peng J. et al., Nat. Cell Biol., 10: 314-321, 2008)."}, "[4]": {"settings": "final concentration 1 μM, after 6 hours of culture"}, "[5]": {"settings": "final concentration 5 μM, 3 hours of culture"}}, "note": "Where no end group is shown, it is not given here."}
{"substance": "Acetyl-(N)-Ser-Tyr-Ser-Met-Glu-His-Phe-Arg-Trp-Gly-Lys-Pro-Val-NH2 (Ac-SYSMEHFRWGKPV-NH2) [α-MSH, melanocyte-stimulating hormone peptide containing an acetyl group, manufactured by Sigma]", "values": [{"measurement": "induction of enucleation (enucleation rate)", "setting": "[1]", "value": "able to be induced"}, {"measurement": "induction of enucleation (enucleation rate)", "setting": "[2]; [4]", "value": "able to be induced"}, {"measurement": "induction of enucleation (enucleation rate)", "setting": "[2]; [5]", "value": "able to be induced"}]}
{"substance": "Ser-Tyr-Ser-Met-Glu-His-Phe-Arg-Trp-Gly-Lys-Pro-Val-Gly-Lys-Lys-Arg-Arg-Pro-Val-Lys-Val-Tyr-Pro (SYSMEHFRWGKPVGKKRRPVKVYP; ACTH1-24)", "values": [{"measurement": "percentage of enucleated erythrocytes in cells differentiating into erythrocytes", "setting": "[3]", "value": "about 70%"}, {"measurement": "induction of enucleation (enucleation rate)", "setting": "[1]", "value": "able to be induced"}, {"measurement": "induction of enucleation (enucleation rate)", "setting": "[2]; [4]", "value": "able to be induced"}, {"measurement": "induction of enucleation (enucleation rate)", "setting": "[2]; final concentration 5 μM, after 6 hours of culture", "value": "able to be induced"}]}
{"substance": "RPVKVYPNGAEDESAEAFPLEF [CLIP, Corticotropin-Like Intermediate Lobe Peptide, manufactured by Sigma]", "values": [{"measurement": "induction of enucleation (enucleation rate)", "setting": "[1]", "value": "able to be induced"}, {"measurement": "induction of enucleation (enucleation rate)", "setting": "[2]; [4]", "value": "able to be induced"}, {"measurement": "induction of enucleation (enucleation rate)", "setting": "[2]; [5]", "value": "able to be induced"}]}
{"substance": "SYSMEHFRWGKPVGKKRRPVKVYPNVAENESAEAFPLEF [ACTH1-39, adrenocorticotropic hormone, manufactured by Sigma]", "values": [{"measurement": "induction of enucleation (enucleation rate)", "setting": "[1]", "value": "able to be induced"}, {"measurement": "induction of enucleation (enucleation rate)", "setting": "[2]; [5]", "value": "higher than that in the control"}]}
